Active and inactive are the calls of the source. The rule behind the calls is not given here.

In series [1] the test system is Peritoneal macrophage. Kind of series: Antiinflammatory activity in mouse primary peritoneal macrophages assessed as inhibition of LPS-induced IL-6 production at 10 uM preincubated for 30 mins followed by LPS addition and measured after 24 hrs by ELISA relative to control. Format: functional. In general terms: ELISA stands for enzyme-linked immunosorbent assay.
The subject of series [2] is Peritoneal macrophage. The series is described as follows: Antiinflammatory activity in mouse primary peritoneal macrophages assessed as inhibition of LPS-induced TNF-alpha production at 10 uM preincubated for 30 mins followed by LPS addition and measured after 24 hrs by ELISA relative to control. In kind it is functional.
The test system of series [3] is Peritoneal macrophage. Kind of series: Antiinflammatory activity in mouse primary peritoneal macrophages assessed as inhibition of LPS-induced TNF-alpha production preincubated for 30 mins followed by LPS addition and measured after 24 hrs by ELISA. Format: functional, cell-based.
Series [4] has as its system Peritoneal macrophage. Kind of series: Cytotoxicity against mouse primary peritoneal macrophages assessed as reduction in cell viability at 10 uM after 24 hrs by MTT assay. In kind it is cell-based. (In general: Formazan colour is commonly taken as a measure of viable cells.)
Series [5] has as its system Peritoneal macrophage. Kind of series: Antiinflammatory activity in mouse primary peritoneal macrophages assessed as inhibition of LPS-induced IL-6 production preincubated for 30 mins followed by LPS addition and measured after 24 hrs by ELISA. In kind it is functional, cell-based.

As for `COc1ccc(S(=O)(=O)c2cc3ccccc3n2C)cc1`, the inhibition entry in the series with Peritoneal macrophage [1] and in the series on Peritoneal macrophage [2] was “Active” throughout. Further, the IC50 (in general, the concentration needed to halve the response being measured) is 59.4 µM in the series with Peritoneal macrophage [3] and 1.12 µM in the series with Peritoneal macrophage [5]. Besides, the Activity result in the series with Peritoneal macrophage [4] was “Non-Toxic”.

Regarding `Cc1ccc(S(=O)(=O)c2c(C)n(C)c3ccccc23)cc1`, the inhibition entry in the series on Peritoneal macrophage [1] and with Peritoneal macrophage [2] was “Active” each time. For the same compound, in the series with Peritoneal macrophage [4], the Activity result is recorded as “Non-Toxic”.

Turning to `Cn1c(S(C)(=O)=O)cc2ccccc21`, the inhibition entry in the series on Peritoneal macrophage [1] and in the series on Peritoneal macrophage [2] was “Active” each time. The Activity entry with Peritoneal macrophage [4] is “Non-Toxic”.

As for `Cn1c(S(=O)(=O)c2ccc(Cl)cc2)cc2ccccc21`, the inhibition result in the series on Peritoneal macrophage [1] and in the series on Peritoneal macrophage [2] was “Active” in each case. The Activity result in the series with Peritoneal macrophage [4] is given as “Non-Toxic”.

As to `Cc1ccccc1S(=O)(=O)c1cc2ccccc2n1C`, the inhibition entry with Peritoneal macrophage [1] and with Peritoneal macrophage [2] was “Active” throughout. Besides, the Activity result in the series on Peritoneal macrophage [4] was “Non-Toxic”.

Take `Cc1ccc(S(=O)(=O)c2c(C)c3ccccc3n2C)cc1`: the inhibition entry with Peritoneal macrophage [1] and in the series with Peritoneal macrophage [2] was “Active” each time. In addition, the Activity entry in the series on Peritoneal macrophage [4] is listed as “Non-Toxic”.

As for `Cc1c(S(=O)(=O)c2ccc(C(F)(F)F)cc2)n(C)c2ccccc12`, the inhibition entry with Peritoneal macrophage [1] and in the series on Peritoneal macrophage [2] was “Active” in each case. The Activity result in the series on Peritoneal macrophage [4] was “Non-Toxic”.

For `COc1ccc(S(=O)(=O)c2[nH]c3cc(C)ccc3c2I)cc1`, the inhibition result in the series on Peritoneal macrophage [1] and with Peritoneal macrophage [2] was “Active” throughout. In the series on Peritoneal macrophage [4], the Activity entry is reported as “Non-Toxic”.

With `COc1ccc2c(c1)c(CC(=O)O)c(C)n2C(=O)c1ccc(Cl)cc1` [INDOMETHACIN], the inhibition result in the series on Peritoneal macrophage [1] and in the series on Peritoneal macrophage [2] was “Active” each time. For the same compound, in the series on Peritoneal macrophage [4], the Activity result is given as “Non-Toxic”.

As to `Cc1ccc(S(=O)(=O)c2cc3c(Cl)cccc3[nH]2)cc1`, the inhibition result with Peritoneal macrophage [1] and in the series on Peritoneal macrophage [2] was “Active” in each case. Besides, in the series with Peritoneal macrophage [4], the Activity entry is “Non-Toxic”.

Regarding `Cn1c(S(=O)(=O)c2cccc3ccccc23)cc2ccccc21`, the inhibition entry in the series with Peritoneal macrophage [1] and in the series on Peritoneal macrophage [2] was “Active” each time. Besides, in the series on Peritoneal macrophage [4], the Activity result was “Non-Toxic”.

With `Cc1ccc(S(=O)(=O)c2cc3ccc(F)cc3n2C)cc1`, the inhibition entry in the series on Peritoneal macrophage [1] and in the series on Peritoneal macrophage [2] was “Active” throughout. Moreover, the Activity result in the series on Peritoneal macrophage [4] is given as “Non-Toxic”.

For `Cn1c(S(=O)(=O)c2ccccc2)cc2ccccc21`, the inhibition result in the series with Peritoneal macrophage [1] and in the series with Peritoneal macrophage [2] was “Active” in each case. Further, in the series on Peritoneal macrophage [4], the Activity entry was “Non-Toxic”.

As for `Cc1ccc(S(=O)(=O)c2cc3ccccc3n2C)cc1`, the figures for the inhibition at 10 µM in the series on Peritoneal macrophage [1] and with Peritoneal macrophage [2] were 88% and 82%, respectively. Moreover, the IC50 in the series with Peritoneal macrophage [3] was 11.9 µM; with Peritoneal macrophage [5], 2.39 µM. Further, the inhibition entry with Peritoneal macrophage [3] and in the series with Peritoneal macrophage [5] was “Dose-dependent effect” throughout. Also, the Activity entry in the series with Peritoneal macrophage [4] is given as “Non-Toxic”.

Regarding `Cn1c(S(=O)(=O)c2ccc(-c3ccccc3)cc2)cc2ccccc21`, the inhibition entry with Peritoneal macrophage [1] and in the series on Peritoneal macrophage [2] was “Active” throughout. Besides, the Activity entry with Peritoneal macrophage [4] is recorded as “Non-Toxic”.

On to `Cn1c(S(=O)(=O)c2cccs2)cc2ccccc21`, for which the inhibition result in the series with Peritoneal macrophage [1] and with Peritoneal macrophage [2] was “Active” throughout. Moreover, in the series with Peritoneal macrophage [4], the Activity entry is recorded as “Non-Toxic”.

For `CCCCn1c(S(=O)(=O)c2ccc(C)cc2)cc2ccccc21`, the inhibition result in the series with Peritoneal macrophage [1] and in the series with Peritoneal macrophage [2] was “Active” in each case. Also, the Activity entry with Peritoneal macrophage [4] is given as “Non-Toxic”.

Consider `COc1ccc2c(c1)cc(S(=O)(=O)c1ccc(C(F)(F)F)cc1)n2C`, for which the inhibition result in the series on Peritoneal macrophage [1] and with Peritoneal macrophage [2] was “Active” throughout. The Activity result in the series with Peritoneal macrophage [4] is on record as “Non-Toxic”.

With `Cc1ccc(S(=O)(=O)c2[nH]c3ccccc3c2I)cc1`, the inhibition result in the series on Peritoneal macrophage [1] and in the series on Peritoneal macrophage [2] was “Active” in each case. In addition, the Activity entry in the series on Peritoneal macrophage [4] is on record as “Non-Toxic”.

For the compound `Cc1ccc(S(=O)(=O)c2cc3ccc(C)cc3n2C)cc1`, the inhibition entry in the series with Peritoneal macrophage [1] and in the series with Peritoneal macrophage [2] was “Active” throughout. Besides, the Activity entry with Peritoneal macrophage [4] is on record as “Non-Toxic”.

As to `Cc1ccc(S(=O)(=O)c2cc3cc(Br)ccc3n2C)cc1`, the inhibition result in the series on Peritoneal macrophage [1] and in the series on Peritoneal macrophage [2] was “Active” each time. Besides, the Activity entry in the series with Peritoneal macrophage [4] is recorded as “Non-Toxic”.

In the case of `COc1ccc2c(c1)cc(S(=O)(=O)c1ccc(C)cc1)n2C`, the inhibition result in the series with Peritoneal macrophage [1] and in the series with Peritoneal macrophage [2] was “Active” each time. For the same compound, the Activity result with Peritoneal macrophage [4] is on record as “Non-Toxic”.

In the case of `COc1ccc2c(c1)cc(S(=O)(=O)c1ccc(C(C)(C)C)cc1)n2C`, the inhibition result with Peritoneal macrophage [1] and with Peritoneal macrophage [2] was “Active” in each case. Moreover, the Activity result with Peritoneal macrophage [4] was “Non-Toxic”.

Consider `CCn1c(-c2ccccc2)c(S(=O)(=O)c2ccc(C)cc2)c2ccccc21`, for which the inhibition result with Peritoneal macrophage [1] and with Peritoneal macrophage [2] was “Active” throughout. In the series on Peritoneal macrophage [4], the Activity result is reported as “Non-Toxic”.

Turning to `Cc1ccc(S(=O)(=O)c2cc3c(Cl)cccc3n2C)cc1`, the inhibition entry in the series on Peritoneal macrophage [1] and in the series with Peritoneal macrophage [2] was “Active” in each case. The Activity entry in the series on Peritoneal macrophage [4] was “Non-Toxic”.

In the case of `Cc1ccc(S(=O)(=O)c2[nH]c3cc(C)ccc3c2I)cc1`, the inhibition entry in the series with Peritoneal macrophage [1] and in the series with Peritoneal macrophage [2] was “Active” throughout. Moreover, the Activity entry in the series on Peritoneal macrophage [4] is recorded as “Non-Toxic”.

With `Cc1ccc(S(=O)(=O)c2cc3cc([N+](=O)[O-])ccc3n2C)cc1`, the inhibition result in the series with Peritoneal macrophage [1] and in the series on Peritoneal macrophage [2] was “Active” throughout. Moreover, the Activity entry with Peritoneal macrophage [4] is “Non-Toxic”.

Turning to `Cc1c(S(=O)(=O)c2ccc(C(C)(C)C)cc2)n(C)c2ccccc12`, the inhibition result in the series with Peritoneal macrophage [1] and in the series on Peritoneal macrophage [2] was “Active” each time. The Activity result with Peritoneal macrophage [4] is on record as “Non-Toxic”.

`Cc1ccc2cc(S(=O)(=O)c3cccc4ccccc34)[nH]c2c1`: the inhibition result in the series on Peritoneal macrophage [1] and in the series with Peritoneal macrophage [2] was “Active” throughout. Also, the Activity result in the series on Peritoneal macrophage [4] is “Non-Toxic”.

For the compound `Cn1c(S(=O)(=O)c2ccc(F)cc2)cc2ccccc21`, the inhibition entry with Peritoneal macrophage [1] and in the series on Peritoneal macrophage [2] was “Active” in each case. Further, in the series on Peritoneal macrophage [4], the Activity entry is reported as “Non-Toxic”.

For the origin of these results see ChEMBL document CHEMBL4382208, “Design, synthesis and biological evaluation of novel 2-sulfonylindoles as potential anti-inflammatory therapeutic agents for treatment of acute lung injury” (Eur J Med Chem, 2018).
